Common to all, as to type: in vitro ADME
The target in one experiment is T1, CYP1A2 (Homo sapiens, UniProt P05177).
T1 construct: Mixed human liver microsomes (HLM) were purchased from Corning Inc; tissue Corning Inc. or XenoTech, LLC. or other suppliers; host or cells: pooled human liver microsomes
T1 sequence (P05177 1-516): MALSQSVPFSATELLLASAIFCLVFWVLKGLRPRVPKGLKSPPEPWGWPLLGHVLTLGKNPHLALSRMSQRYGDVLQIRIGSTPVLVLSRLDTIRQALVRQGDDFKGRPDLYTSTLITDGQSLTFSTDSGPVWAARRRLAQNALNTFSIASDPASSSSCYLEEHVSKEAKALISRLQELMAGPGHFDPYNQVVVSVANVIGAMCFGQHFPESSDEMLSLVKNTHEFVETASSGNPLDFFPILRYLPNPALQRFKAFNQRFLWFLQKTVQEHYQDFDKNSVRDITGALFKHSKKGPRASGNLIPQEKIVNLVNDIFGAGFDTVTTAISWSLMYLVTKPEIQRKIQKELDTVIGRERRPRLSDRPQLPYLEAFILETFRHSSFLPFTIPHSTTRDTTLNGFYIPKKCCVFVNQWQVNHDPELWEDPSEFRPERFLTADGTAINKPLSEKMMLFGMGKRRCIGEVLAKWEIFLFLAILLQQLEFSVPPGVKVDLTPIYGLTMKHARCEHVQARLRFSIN
Kind of experiment: Human liver microsomal CYP inhibition experiment, CYP1A2. As to the method:
(§1) Experiment Embodiment 4: Human Liver Microsomal CYP Inhibition Experiment
(§2) The inhibitory effects of the test compound 3A and VK5211 on the activities of human liver microsomal cytochrome P450 isozymes (CYP1A2, CYP2C9, CYP2C19, CYP2D6 and CYP3A4) were determined.
(§3) Mixed human liver microsomes (HLM) were purchased from Corning Inc. (Steuben, New York, USA) or XenoTech, LLC. (Lenexa, Kans., USA) or other suppliers, and were stored at a temperature below −60° C. before use.
(§4) First, the test compound (10.0 mM) was gradient diluted to prepare working solution (100×final concentration), and the concentrations of the working solution were: 5.00, 1.50, 0.500, 0.150, 0.0500, 0.0150, 0.00500 mM, and a working solution of each positive inhibitor of P450 isozymes (CYP1A2, CYP2C9, CYP2C19, CYP2D6, and CYP3A4) and a specific substrate mixture thereof (5 in 1) were prepared at the same time; human liver microsomes stored in a refrigerator at a temperature lower than −60° C. were put on ice to thaw, and when all the human liver microsomes were dissolved, the microsomes were diluted with potassium phosphate buffer (PB) to prepare a working solution of a certain concentration (0.253 mg/mL). […] The concentration of metabolites produced by the probe substrate in the sample was determined by liquid chromatography-tandem mass spectrometry (LC-MS/MS) method. […]
A general note: Liver microsomes are vesicles of endoplasmic reticulum, rich in cytochrome P450 enzymes.

The next experiment concerns the target T2, CYP2C9 (Homo sapiens, UniProt P11712).
T2 construct: Mixed human liver microsomes (HLM) were purchased from Corning Inc; tissue Corning Inc. or XenoTech, LLC. or other suppliers; host or cells: pooled human liver microsomes
Kind of experiment: Human liver microsomal CYP inhibition experiment, CYP2C9. Here is the method:
as §1, §2, §3, §4

In another experiment the target is T3, CYP2C19 (Homo sapiens, UniProt P33261).
T3 construct: Mixed human liver microsomes (HLM) were purchased from Corning Inc; tissue Corning Inc. or XenoTech, LLC. or other suppliers; host or cells: pooled human liver microsomes
Kind of experiment: Human liver microsomal CYP inhibition experiment, CYP2C19. As to the method:
as §1, §2, §3, §4

The target of a further experiment is T4, CYP2D6 (Homo sapiens, UniProt P10635).
T4 construct: Mixed human liver microsomes (HLM) were purchased from Corning Inc; tissue Corning Inc. or XenoTech, LLC. or other suppliers; host or cells: pooled human liver microsomes
Kind of experiment: Human liver microsomal CYP inhibition experiment, CYP2D6. Here is the method:
as §1, §2, §3, §4

The target in another experiment is T5, CYP3A4 (Homo sapiens, UniProt P08684).
T5 construct: Mixed human liver microsomes (HLM) were purchased from Corning Inc; tissue Corning Inc. or XenoTech, LLC. or other suppliers; host or cells: pooled human liver microsomes
Kind of experiment: Human liver microsomal CYP inhibition experiment, CYP3A4. Here is the method:
as §1, §2, §3, §4

The structures appear in SMILES notation.

T4 sequence (P10635 whole entry): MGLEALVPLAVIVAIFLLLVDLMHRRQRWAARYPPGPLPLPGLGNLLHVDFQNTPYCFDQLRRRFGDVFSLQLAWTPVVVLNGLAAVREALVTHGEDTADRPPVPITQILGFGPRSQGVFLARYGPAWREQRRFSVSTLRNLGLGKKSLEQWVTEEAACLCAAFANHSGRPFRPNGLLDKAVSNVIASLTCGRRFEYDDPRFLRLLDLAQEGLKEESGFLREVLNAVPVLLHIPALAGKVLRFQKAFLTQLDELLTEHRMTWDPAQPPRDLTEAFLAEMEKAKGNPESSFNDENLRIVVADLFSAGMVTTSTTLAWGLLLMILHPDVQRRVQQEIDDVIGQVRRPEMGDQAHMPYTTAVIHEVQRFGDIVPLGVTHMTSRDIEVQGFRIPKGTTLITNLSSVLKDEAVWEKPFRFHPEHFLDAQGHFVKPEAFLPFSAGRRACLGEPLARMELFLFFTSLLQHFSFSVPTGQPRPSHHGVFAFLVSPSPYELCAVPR
T5 sequence (P08684 whole entry): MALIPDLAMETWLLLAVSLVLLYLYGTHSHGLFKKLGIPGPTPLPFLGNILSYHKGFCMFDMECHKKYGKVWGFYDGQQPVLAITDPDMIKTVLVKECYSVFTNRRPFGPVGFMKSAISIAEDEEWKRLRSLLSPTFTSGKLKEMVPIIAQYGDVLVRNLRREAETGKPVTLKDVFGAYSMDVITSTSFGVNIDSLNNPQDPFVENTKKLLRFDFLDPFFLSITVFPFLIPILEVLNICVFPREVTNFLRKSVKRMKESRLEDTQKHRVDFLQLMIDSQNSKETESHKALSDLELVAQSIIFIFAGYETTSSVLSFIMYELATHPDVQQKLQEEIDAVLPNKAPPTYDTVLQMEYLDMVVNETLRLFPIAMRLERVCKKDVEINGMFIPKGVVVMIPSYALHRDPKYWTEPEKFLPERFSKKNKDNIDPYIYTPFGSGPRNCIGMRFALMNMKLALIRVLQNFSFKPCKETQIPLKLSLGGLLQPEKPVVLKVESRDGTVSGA
T3 sequence (P33261 whole entry): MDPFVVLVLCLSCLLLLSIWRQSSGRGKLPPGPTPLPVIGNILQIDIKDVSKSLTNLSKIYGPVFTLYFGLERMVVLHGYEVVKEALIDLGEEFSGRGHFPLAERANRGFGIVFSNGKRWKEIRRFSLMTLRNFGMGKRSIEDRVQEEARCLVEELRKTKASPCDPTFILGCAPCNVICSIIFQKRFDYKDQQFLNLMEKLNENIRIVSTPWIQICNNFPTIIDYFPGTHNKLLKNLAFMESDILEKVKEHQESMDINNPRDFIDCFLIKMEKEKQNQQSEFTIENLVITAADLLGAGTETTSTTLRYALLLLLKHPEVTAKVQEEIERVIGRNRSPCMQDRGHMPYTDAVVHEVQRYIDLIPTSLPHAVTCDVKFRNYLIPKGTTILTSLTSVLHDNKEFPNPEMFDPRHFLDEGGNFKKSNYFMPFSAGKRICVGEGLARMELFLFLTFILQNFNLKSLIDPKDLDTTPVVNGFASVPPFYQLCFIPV
T2 sequence (P11712 whole entry): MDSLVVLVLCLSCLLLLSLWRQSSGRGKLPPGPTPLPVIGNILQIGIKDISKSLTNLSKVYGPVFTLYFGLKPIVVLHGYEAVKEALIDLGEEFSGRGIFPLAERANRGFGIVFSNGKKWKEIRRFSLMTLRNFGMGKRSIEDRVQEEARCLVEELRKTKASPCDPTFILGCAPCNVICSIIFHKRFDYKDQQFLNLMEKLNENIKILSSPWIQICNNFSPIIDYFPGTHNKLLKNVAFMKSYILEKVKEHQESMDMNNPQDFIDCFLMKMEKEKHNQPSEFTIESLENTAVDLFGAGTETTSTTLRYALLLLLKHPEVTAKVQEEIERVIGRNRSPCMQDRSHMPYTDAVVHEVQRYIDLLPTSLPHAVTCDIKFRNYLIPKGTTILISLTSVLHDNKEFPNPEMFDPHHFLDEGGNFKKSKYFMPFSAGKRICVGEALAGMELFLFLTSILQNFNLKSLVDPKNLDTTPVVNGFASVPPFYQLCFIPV

In general, IC50 refers to the concentration needed to halve the response being measured. Low values mean inhibition by little substance, high ones a need for much substance. For the compound `N#Cc1ccc(N2CCC[C@@H]2[C@@H](O)C(F)(F)F)cc1C(F)(F)F` [VK5211, reference compound], the IC50 against CYP1A2 turned out to be 4.44 µM; against CYP2C9, 5.84 µM; against CYP2C19, 4.23 µM; against CYP2D6 it was 7.67 µM; against CYP3A4 it was 44.7 µM.
